Experiment: recombinant UMI read abundance after kanamycin selection (control-corrected) (log10(CPM+1)); higher = more efficient recombination; extreme values may be limits of the assay; sequences stand for … in AGTGCAGAGAAAATCGGCCAGTTTTCTCTGCCTGCAGTCCGCATGCCGTGGGACCCCTTGGGTTCTAACCTGTTGCCTAGATTTATGCAGCGGACTGCCTTTCTCCCAAAGTGATAAACCGG…AGGTTGGTTTCACT; site = the 11-nt donor
Experimental: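 Pooled E. coli donor-specificity screen for the IS621 bridge recombinase. Each library member carries a reprogrammed 11-nt donor and a full-length LE bridge RNA expressed in cis from the natural promoter, with a paired donor-binding loop (8-nt LDG + 4-nt RDG) and a target-binding loop fixed to T5. It is co-electroporated with a T5 target plasmid; recombinase is induced with 0.07 mM IPTG and recombinants are selected on kanamycin. UMIs are counted as CPM, averaged over two biological replicates and corrected by the unselected control. Molecule = full bridge RNA written as DNA, built from the T5 scaffold: LDG = donor specificity nt 1-8, RDG = reverse complement of nt 8-11.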
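Note: IS621 bridge recombinase in Escherichia coli cells against a fixed T5 target plasmid.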

Row | Sequence | recombinant UMI read abundance (log10)
1 | ACAGTATCATGGACCGGTTTTCCCGGTAATCCGTATTTGCA (site CCTGTATCTTG) | 2.37
2 | ACAGTATCATGGACCGGTTTTCCCGGTAATCCGTATTTGCA (site CGAGTATCTTG) | 1.36
3 | ACAGTATCATGGACCGGTTTTCCCGGTAATCCGTATTTGCA (site GAAGTATCTTG) | 2.82
4 | ACAGTATCATGGACCGGTTTTCCCGGTAATCCGTATTTGCA (site GCAATATCTTG) | 1.63
5 | ACAGTATCATGGACCGGTTTTCCCGGTAATCCGTATTTGCA (site GCAGAATCTTG) | 1.47
6 | ACAGTATCATGGACCGGTTTTCCCGGTAATCCGTATTTGCA (site GCAGTAACTTG) | 0
7 | ACAGTATCATGGACCGGTTTTCCCGGTAATCCGTATTTGCA (site GCAGTATCTAG) | 0.0509
8 | ACAGTATCATGGACCGGTTTTCCCGGTAATCCGTATTTGCA (site GCAGTATCTTC) | 0.00944
9 | ACAGTATCATGGACCGGTTTTCCCGGTAATCCGTATTTGCA (site GCAGTATCTTG) | 2.41
10 | ACAGTATCATGGACCGGTTTTCCCGGTAATCCGTATTTGCA (site GCAGTCTCTTG) | 0.292
11 | ACAGTATCATGGACCGGTTTTCCCGGTAATCCGTATTTGCA (site GCCGTATCTTG) | 1.88
12 | ACAGTATCATGGACCGGTTTTCCCGGTAATCCGTATTTGCA (site TCACTATCTTG) | 0.822
13 | ACAGTATCATGGACCGGTTTTCCCGGTAATCCGTATTTGCA (site TCAGCATCTTG) | 2.37
14 | ACAGTATCATGGACCGGTTTTCCCGGTAATCCGTATTTGCA (site TCAGTAGCTTG) | 0.0987
15 | ACAGTATCATGGACCGGTTTTCCCGGTAATCCGTATTTGCA (site TCAGTATCTCG) | 0.00474
16 | ACAGTATCATGGACCGGTTTTCCCGGTAATCCGTATTTGCA (site TCAGTATCTTA) | 0
17 | ACAGTATCATGGACCGGTTTTCCCGGTAATCCGTATTTGCA (site TCAGTATCTTG) | 2.54
18 | ACAGTATCATGGACCGGTTTTCCCGGTAATCCGTATTTGCA (site TCAGTTTCTTG) | 1.26
19 | ACAGTATCATGGACCGGTTTTCCCGGTAATCCGTATTTGCA (site TCGGTATCTTG) | 0.0345
20 | ACAGTATCATGGACCGGTTTTCCCGGTAATCCGTATTTGCA (site TTAGTATCTTG) | 2.66
21 | ACAGTATCATGGACCGGTTTTCCCGGTAATCCGTATTTGGT (site ACAGTATCTAC) | 2.61
22 | ACAGTATCATGGACCGGTTTTCCCGGTAATCCGTATTTGGT (site ACAGTATCTTG) | 0.731
23 | ACAGTCACATGGACCGGTTTTCCCGGTAATCCGTATTTGCA (site ACAGTATCTTG) | 1.84
24 | ACAGTCACATGGACCGGTTTTCCCGGTAATCCGTATTTGCA (site ACAGTCACTTG) | 2.58

Row | Sequence | recombinant UMI read abundance (log10)
25 | ACAGTCTCATGGACCGGTTTTCCCGGTAATCCGTATTTGCA (site ACAGTATCTTG) | 2.26
26 | ACAGTCTCATGGACCGGTTTTCCCGGTAATCCGTATTTGCA (site ACAGTCTCTTG) | 3.22
27 | ACAGTCTCATGGACCGGTTTTCCCGGTAATCCGTATTTGCA (site ACAGTGTCTTG) | 2.28
28 | ACAGTCTCATGGACCGGTTTTCCCGGTAATCCGTATTTGCA (site ACAGTTTCTTG) | 0.155
29 | ACAGTCTCATGGACCGGTTTTCCCGGTAATCCGTATTTGCT (site ACAGTATCTTG) | 0
30 | ACAGTCTCATGGACCGGTTTTCCCGGTAATCCGTATTTGCT (site ACAGTCTCTAG) | 2.94
31 | ACAGTGCCATGGACCGGTTTTCCCGGTAATCCGTATTTGAG (site ACAGTGCCTCT) | 0.285
32 | ACAGTGCCATGGACCGGTTTTCCCGGTAATCCGTATTTGCA (site ACAGTATCTTG) | 0.852
33 | ACAGTGCCATGGACCGGTTTTCCCGGTAATCCGTATTTGCA (site ACAGTGCCTTG) | 1.38
34 | ACAGTGTCATGGACCGGTTTTCCCGGTAATCCGTATTTGCA (site ACAGTATCTTG) | 3.35
35 | ACAGTGTCATGGACCGGTTTTCCCGGTAATCCGTATTTGCA (site ACAGTCTCTTG) | 2
36 | ACAGTGTCATGGACCGGTTTTCCCGGTAATCCGTATTTGCA (site ACAGTGTCTTG) | 3.29
37 | ACAGTGTCATGGACCGGTTTTCCCGGTAATCCGTATTTGCA (site ACAGTTTCTTG) | 0.818
38 | ACAGTTTCATGGACCGGTTTTCCCGGTAATCCGTATTTGCG (site ACAGTATCTTG) | 0
39 | ACAGTTTCATGGACCGGTTTTCCCGGTAATCCGTATTTGCG (site ACAGTTTCTCG) | 2.64
40 | ACATACACATGGACCGGTTTTCCCGGTAATCCGTATTTGAG (site ACATACACTCT) | 1.79
41 | ACATACTCATGGACCGGTTTTCCCGGTAATCCGTATTTGCA (site ACATACTCTTG) | 2.8
42 | ACATACTCATGGACCGGTTTTCCCGGTAATCCGTATTTGCA (site CCATACTCTTG) | 2.69
43 | ACATACTCATGGACCGGTTTTCCCGGTAATCCGTATTTGCA (site GCATACTCTTG) | 2.66
44 | ACATACTCATGGACCGGTTTTCCCGGTAATCCGTATTTGCA (site TCATACTCTTG) | 2.8
45 | ACATCTACATGGACCGGTTTTCCCGGTAATCCGTATTTGTC (site ACATCTACTAA) | 0.0236
46 | ACATCTACATGGACCGGTTTTCCCGGTAATCCGTATTTGTC (site ACATCTACTCA) | 0.0109
47 | ACATCTACATGGACCGGTTTTCCCGGTAATCCGTATTTGTC (site ACATCTACTGA) | 0
48 | ACATCTACATGGACCGGTTTTCCCGGTAATCCGTATTTGTC (site ACATCTACTTA) | 0.0124

Row | Sequence | recombinant UMI read abundance (log10)
49 | ACATCTACATGGACCGGTTTTCCCGGTAATCCGTATTTGTT (site ACATCTACTAA) | 0.142
50 | ACATCTACATGGACCGGTTTTCCCGGTAATCCGTATTTGTT (site ACATCTACTCA) | 0.0105
51 | ACATCTACATGGACCGGTTTTCCCGGTAATCCGTATTTGTT (site ACATCTACTGA) | 0
52 | ACATCTACATGGACCGGTTTTCCCGGTAATCCGTATTTGTT (site ACATCTACTTA) | 0.0357
53 | ACATGCACATGGACCGGTTTTCCCGGTAATCCGTATTTGTC (site ACATGCACTGA) | 2.06
54 | ACATGCGCATGGACCGGTTTTCCCGGTAATCCGTATTTGAT (site ACATGCGCTAT) | 2.22
55 | ACATGTACATGGACCGGTTTTCCCGGTAATCCGTATTTGTG (site ACATATACTCA) | 0.616
56 | ACATGTACATGGACCGGTTTTCCCGGTAATCCGTATTTGTG (site ACATCTACTCA) | 0.00614
57 | ACATGTACATGGACCGGTTTTCCCGGTAATCCGTATTTGTG (site ACATGTACTCA) | 1.07
58 | ACATGTACATGGACCGGTTTTCCCGGTAATCCGTATTTGTG (site ACATTTACTCA) | 0
59 | ACATTGTCATGGACCGGTTTTCCCGGTAATCCGTATTTGCA (site ACAGTATCTTG) | 1.37
60 | ACATTGTCATGGACCGGTTTTCCCGGTAATCCGTATTTGCA (site ACATTGTCTTG) | 2.75
61 | ACCAAGTCATGGACCGGTTTTCCCGGTAATCCGTATTTGTG (site ACCAAGTCTCA) | 2.15
62 | ACCAATTCATGGACCGGTTTTCCCGGTAATCCGTATTTGCT (site ACCAATTCTAG) | 2.42
63 | ACCACGACATGGACCGGTTTTCCCGGTAATCCGTATTTGAC (site ACCACGACTGT) | 2.72
64 | ACCAGCCCATGGACCGGTTTTCCCGGTAATCCGTATTTGCT (site ACCAGCCCTAG) | 0.0684
65 | ACCCCAACATGGACCGGTTTTCCCGGTAATCCGTATTTGAC (site ACCCCAACTGT) | 2.49
66 | ACCCGTCCATGGACCGGTTTTCCCGGTAATCCGTATTTGAT (site AACCGTCCTAT) | 0.00657
67 | ACCCGTCCATGGACCGGTTTTCCCGGTAATCCGTATTTGAT (site ACCCGTCCTAT) | 0.224
68 | ACCCGTCCATGGACCGGTTTTCCCGGTAATCCGTATTTGAT (site AGCCGTCCTAT) | 0.0209
69 | ACCCGTCCATGGACCGGTTTTCCCGGTAATCCGTATTTGAT (site ATCCGTCCTAT) | 0.015
70 | ACCCGTCCATGGACCGGTTTTCCCGGTAATCCGTATTTGTA (site ACCCGTCCTTA) | 0.613
71 | ACCGTCTCATGGACCGGTTTTCCCGGTAATCCGTATTTGCA (site ACAGTATCTTG) | 0.902
72 | ACCGTCTCATGGACCGGTTTTCCCGGTAATCCGTATTTGCA (site ACCGTCTCTTG) | 2.85
